From ChEMBL document CHEMBL1201862, “PubChem BioAssay data set” (2004)
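Following 48 hours of exposure in 96-well plates, responses at five concentrations were used to interpolate endpoints linearly. GI50: concentration for 50% inhibition of growth.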 Active and inactive are the calls of the source. Rule as the data show it: active = GI50 up to about 1.1 µM and inactive = higher.

Tests used:
Assay in all cases: inhibition of tumour cell growth, NCI panel, 48 h
DLD-1 = test system: DLD-1
DMS-114 = test system: DMS-114
KM-20L2 = test system: KM-20L2
LXFL 529 = test system: LXFL 529
M19-MEL = test system: M19-MEL
RXF 631 = test system: RXF 631
SNB-78 = test system: SNB-78
XF498 = test system: XF498
DMS-273 = test system: DMS-273

O=C(CC1SC(Nc2ccccc2Cl)=NC1=O)Nc1ccc(Cl)cc1Cl (centres undefined)
GI50 (DLD-1): > 100 µM (inactive)
GI50 (DMS-114): 78.2 µM (inactive)
GI50 (KM-20L2): > 100 µM (inactive)
GI50 (LXFL 529): > 100 µM (inactive)
GI50 (M19-MEL): > 100 µM (inactive)
GI50 (RXF 631): > 100 µM (inactive)
GI50 (SNB-78): > 100 µM (inactive)
GI50 (XF498): > 100 µM (inactive)

CCC(C)SC1SCC2C(=O)N(C)C3(CC3C)C(=O)OCC(NC(=O)c3nc4ccccc4cc3O)C(=O)NC(C)C(=O)N(C)C1C(=O)N(C)C1(CC1C)C(=O)OCC(NC(=O)c1nc3ccccc3cc1O)C(=O)NC(C)C(=O)N2C (centres undefined)
GI50 (DLD-1): 0.0002 µM (active)
GI50 (DMS-114): 0.000107 µM (active)
GI50 (DMS-273): 2.3e-05 µM (active)
GI50 (KM-20L2): 0.000137 µM (active)
GI50 (LXFL 529): 3.1e-05 µM (active)
GI50 (M19-MEL): 3.3e-05 µM (active)
GI50 (RXF 631): 0.000195 µM (active)
GI50 (SNB-78): 0.01 µM (active)
GI50 (XF498): 5.07e-05 µM (active)

O=C(N/N=C/c1ccccc1O)c1cccc([N+](=O)[O-])c1
GI50 (DLD-1): 45.7 µM (inactive)
GI50 (DMS-114): 3.65 µM (inactive)
GI50 (DMS-273): 6.43 µM (inactive)
GI50 (KM-20L2): 8.49 µM (inactive)
GI50 (LXFL 529): 40.8 µM (inactive)
GI50 (M19-MEL): 12.9 µM (inactive)
GI50 (SNB-78): > 86.3 µM (inactive)
GI50 (XF498): 92.3 µM (inactive)

Cc1ccccc1C(=O)Oc1ccc(Oc2ccccc2)cc1
GI50 (DLD-1): > 100 µM (inactive)
GI50 (DMS-114): > 100 µM (inactive)
GI50 (DMS-273): > 100 µM (inactive)
GI50 (KM-20L2): > 100 µM (inactive)
GI50 (LXFL 529): > 100 µM (inactive)
GI50 (M19-MEL): > 100 µM (inactive)
GI50 (SNB-78): > 100 µM (inactive)
GI50 (XF498): > 100 µM (inactive)

CCCCCCCCCCCCCCCCCc1nnc(N)o1
GI50 (DLD-1): > 100 µM (inactive)
GI50 (DMS-273): > 100 µM (inactive)
GI50 (KM-20L2): > 100 µM (inactive)
GI50 (LXFL 529): > 100 µM (inactive)
GI50 (M19-MEL): > 100 µM (inactive)
GI50 (RXF 631): > 100 µM (inactive)
GI50 (SNB-78): > 100 µM (inactive)
GI50 (XF498): > 100 µM (inactive)

Cc1ccc(Oc2ccc([N+](=O)[O-])cc2[N+](=O)[O-])c(C)c1
GI50 (DLD-1): 56.4 µM (inactive)
GI50 (DMS-114): 26.2 µM (inactive)
GI50 (DMS-273): 28.1 µM (inactive)
GI50 (KM-20L2): > 10 µM (inactive)
GI50 (LXFL 529): 41 µM (inactive)
GI50 (M19-MEL): 51.3 µM (inactive)
GI50 (RXF 631): 21.4 µM (inactive)
GI50 (SNB-78): 61.4 µM (inactive)
GI50 (XF498): 42.1 µM (inactive)

COc1ccc(C2N3CCCCC3[C@@H]3c4[nH]c5ccccc5c4CCN23)c(OC)c1 (some centres undefined)
GI50 (DLD-1): 33.4 µM (inactive)
GI50 (DMS-114): 18.7 µM (inactive)
GI50 (DMS-273): 16.4 µM (inactive)
GI50 (KM-20L2): 18.8 µM (inactive)
GI50 (LXFL 529): 21.8 µM (inactive)
GI50 (M19-MEL): 20 µM (inactive)
GI50 (SNB-78): 18.9 µM (inactive)
GI50 (XF498): 14.1 µM (inactive)

CN(C)CC1CCCCCCCCCCCCC(CN(C)C)C1=O (centres undefined)
GI50 (DLD-1): 15.6 µM (inactive)
GI50 (DMS-114): 16.9 µM (inactive)
GI50 (DMS-273): 10.4 µM (inactive)
GI50 (KM-20L2): 11.9 µM (inactive)
GI50 (LXFL 529): 14.9 µM (inactive)
GI50 (M19-MEL): 12.6 µM (inactive)
GI50 (SNB-78): 13.5 µM (inactive)

CSc1nc(NC2OCC(OC(C)=O)C(OC(C)=O)C2OC(C)=O)c(/N=C(\C)C(C)=O)c(=O)n1C (centres undefined)
GI50 (DLD-1): > 100 µM (inactive)
GI50 (DMS-114): > 100 µM (inactive)
GI50 (DMS-273): > 100 µM (inactive)
GI50 (KM-20L2): > 100 µM (inactive)
GI50 (LXFL 529): > 100 µM (inactive)
GI50 (M19-MEL): > 100 µM (inactive)
GI50 (RXF 631): > 100 µM (inactive)
GI50 (SNB-78): > 100 µM (inactive)
GI50 (XF498): > 100 µM (inactive)

COC(=O)C12CC3CC(C1)CC(C(=O)OC)(C3)C2
GI50 (DLD-1): > 100 µM (inactive)
GI50 (DMS-114): > 100 µM (inactive)
GI50 (DMS-273): > 100 µM (inactive)
GI50 (KM-20L2): > 100 µM (inactive)
GI50 (LXFL 529): > 100 µM (inactive)
GI50 (M19-MEL): > 100 µM (inactive)
GI50 (SNB-78): > 100 µM (inactive)
GI50 (XF498): > 100 µM (inactive)

O=C1OC(c2ccccc2)=N/C1=C\c1cc(Cl)ccc1Cl
GI50 (DLD-1): 33.8 µM (inactive)
GI50 (DMS-114): 49.8 µM (inactive)
GI50 (KM-20L2): > 100 µM (inactive)
GI50 (LXFL 529): 28.5 µM (inactive)
GI50 (M19-MEL): > 100 µM (inactive)
GI50 (RXF 631): 25 µM (inactive)
GI50 (SNB-78): 44.5 µM (inactive)

CSc1ccc2c(cc1=O)C(NC(=O)c1ccc(C#N)cc1)CCc1cc(O)c(O)c(O)c1-2 (centres undefined)
GI50 (DLD-1): 23.1 µM (inactive)
GI50 (DMS-114): 14.8 µM (inactive)
GI50 (DMS-273): 34.9 µM (inactive)
GI50 (KM-20L2): 24.7 µM (inactive)
GI50 (LXFL 529): 19.8 µM (inactive)
GI50 (M19-MEL): 11.9 µM (inactive)
GI50 (RXF 631): 49.8 µM (inactive)
GI50 (SNB-78): 5.58 µM (inactive)
GI50 (XF498): 26.8 µM (inactive)

COC(=O)CCC(=O)CC1CC(=O)C2CCCN12 (centres undefined)
GI50 (DLD-1): > 100 µM (inactive)
GI50 (DMS-114): > 100 µM (inactive)
GI50 (DMS-273): > 100 µM (inactive)
GI50 (KM-20L2): > 100 µM (inactive)
GI50 (LXFL 529): > 100 µM (inactive)
GI50 (M19-MEL): > 100 µM (inactive)
GI50 (SNB-78): > 100 µM (inactive)
GI50 (XF498): > 100 µM (inactive)

Cc1c2ccncc2c(C)c2c1[nH]c1ccc(OC(C)C)cc12
GI50 (DLD-1): 1.35 µM (inactive)
GI50 (DMS-114): 1.49 µM (inactive)
GI50 (DMS-273): 0.681 µM (active)
GI50 (KM-20L2): 1.18 µM (inactive)
GI50 (LXFL 529): 0.787 µM (active)
GI50 (M19-MEL): 1.71 µM (inactive)
GI50 (SNB-78): 2.89 µM (inactive)
GI50 (XF498): 1.52 µM (inactive)
